Laboratory results from ChEMBL document CHEMBL5260811, “Drug development against tuberculosis: Impact of alkaloids” (Eur J Med Chem, 2017).
Converted amounts (≈) assume the structure as drawn.

Columns and labels:
[1] = system: Mycolicibacterium smegmatis; experiment: Antimycobacterial activity against Mycobacterium smegmatis; type: functional; conditions: Mycolicibacterium smegmatis
[2] = system: Mycolicibacterium vaccae; experiment: Antimycobacterial activity against Mycobacterium vaccae; type: functional
[3] = system: Mycolicibacterium fortuitum; experiment: Antimycobacterial activity against Mycobacterium fortuitum; type: functional
[4] = system: Mycobacterium intracellulare; experiment: Antimycobacterial activity against Mycobacterium intracellulare; type: functional, organism-based
[5] = system: Mycobacterium tuberculosis; experiment: Antimycobacterial activity against Mycobacterium tuberculosis H37Rv; type: functional
[6] = system: Mycobacterium tuberculosis; experiment: Antimycobacterial activity against Mycobacterium tuberculosis; type: functional; conditions: Mycobacterium tuberculosis
[7] = system: Mycobacterium tuberculosis; experiment: Antimycobacterial activity against Mycobacterium tuberculosis H37Ra; type: functional
[8] = system: Mycobacterium avium; experiment: Antimycobacterial activity against Mycobacterium avium; type: functional
[9] = system: Mycobacterium kansasii; experiment: Antimycobacterial activity against Mycobacterium kansasii; type: functional
[10] = system: Mycobacterium tuberculosis; experiment: Antimycobacterial activity against Mycobacterium tuberculosis H37Ra by green fluorescent protein microplate assay; type: functional
[11] = system: Mycolicibacterium phlei; experiment: Antimycobacterial activity against Mycobacterium phlei; type: functional
[12] = system: Mycobacterium tuberculosis; experiment: Antimycobacterial activity against Mycobacterium tuberculosis Rv3547; type: functional
[13] = system: Mycobacterium tuberculosis; experiment: Antimycobacterial activity against MDR/XDR Mycobacterium tuberculosis; type: functional
[14] = system: Mycobacterium tuberculosis; experiment: Antimycobacterial activity against Mycobacterium tuberculosis rv0678; type: functional
[15] = system: Mycobacterium tuberculosis; experiment: Antimycobacterial activity against Mycobacterium tuberculosis in presence of isoniazid; type: functional
[16] = system: Mycobacterium tuberculosis; experiment: Antimycobacterial activity against Mycobacterium tuberculosis in presence of ethambutol; type: functional
[17] = system: Mycobacterium tuberculosis; experiment: Antimycobacterial activity against Mycobacterium tuberculosis in presence of banegasine; type: functional
[18] = system: Mycolicibacterium smegmatis; experiment: Antimycobacterial activity against Mycobacterium smegmatis in presence of banegasine; type: functional
[19] = system: Mycobacterium avium; experiment: Antimycobacterial activity against Mycobacterium avium in presence of banegasine; type: functional

**Q.** For `CCCCCCc1cc(Cl)c(O)c(C(=O)c2c[nH]c(Cl)c2Cl)c1O`, which MIC [1] is on record?
**A.** 0.05 µg/mL (≈ 0.128 µM)

**Q.** What about the MIC [2] of the same molecule?
**A.** 0.05 µg/mL (≈ 0.128 µM)

**Q.** And the MIC [3]?
**A.** 0.05 µg/mL (≈ 0.128 µM)

**Q.** What does the source list for `Oc1cccc2c1[nH]c1c(C3=C[C@@]4(O)CC/C=C\CCCCN5CCC3[C@]3(C[C@@H]6/C=C\CCCCN6[C@H]34)C5)nccc12` (stereo partly specified)?
**A.** IC50 [4]: 3.5 µg/mL (≈ 6.2 µM); MIC [5]: 0.4 µg/mL (≈ 0.708 µM)

**Q.** Which results are given for `O=C1CCCN2[C@@H](CC1)C[C@]13CN4CCCC/C=C\CC[C@](O)(C=C(c5nccc6c5[nH]c5c(O)cccc56)[C@@H]1CC4)[C@H]23`?
**A.** IC50 [4]: 3.5 µg/mL (≈ 6.03 µM); MIC [5]: 0.4 µg/mL (≈ 0.689 µM)

**Q.** For `COc1ccc2c(c1)[nH]c1cc(O)c(C=O)cc12`, which MIC [6] is on record?
**A.** 100 µg/mL (≈ 415 µM)

**Q.** And the MIC [7]?
**A.** 25 µg/mL (≈ 104 µM)

**Q.** For `c1cncc(-c2ncc(-c3ccc4c(c3)OCO4)o2)c1`, which MIC [6] is on record?
**A.** 25 µg/mL (≈ 93.9 µM)

**Q.** What about the MIC [8] of the same molecule?
**A.** 25 µg/mL (≈ 93.9 µM)

**Q.** And the MIC [9]?
**A.** 25 µg/mL (≈ 93.9 µM)

**Q.** With `O=C([C@H]1[C@H](/C=C/c2ccc3c(c2)OCO3)[C@H](c2ccc3c(c2)OCO3)C=C[C@H]1C(=O)N1CCCCC1)N1CCCCC1` as the molecule, how does the MIC [7] read?
**A.** 12.5 µg/mL (≈ 21.9 µM)

**Q.** For `O=Cc1cc2c3ccc(O)cc3[nH]c2c2ccoc12`, which MIC [10] is on record?
**A.** 25 µg/mL (≈ 99.5 µM)

**Q.** For `O=C1C=CC2=NC=CC3c4cccc(O)c4N1C23` (stereo unspecified), which MIC [1] is on record?
**A.** 8 µg/mL (≈ 33.6 µM)

**Q.** And the MIC [11]?
**A.** 8 µg/mL (≈ 33.6 µM)

**Q.** `C[C@@]1(COc2ccc(N3CCC(Oc4ccc(OC(F)(F)F)cc4)CC3)cc2)Cn2cc([N+](=O)[O-])nc2O1` was tested. Which MIC [12] did it give?
**A.** 0.006 µg/mL (≈ 0.0112 µM)

**Q.** Which MIC [10] does the source give for `CC(C)=CCc1c(O)c(C=O)cc2c1[nH]c1cc(O)ccc12` [7-HYDROXYHEPTAPHYLLINE] here?
**A.** 25 µg/mL (≈ 84.6 µM)

**Q.** `COc1ccc2c3c(c4cc(OC)c(OC)cc4c2c1)CN1CCCC1C3` (stereo not drawn) [(+/-)-DEOXYTYLOPHORININE] was tested. Which MIC [13] did it give?
**A.** 6.25 µg/mL (≈ 17.2 µM)

**Q.** For `COc1ccc2cc3[n+](cc2c1OC)CCc1cc2c(cc1-3)OCO2.[Cl-]` [BERBERINE CHLORIDE], which MIC [1] is on record?
**A.** 0.78 µg/mL

**Q.** What about the MIC [6] of the same molecule?
**A.** 25 µg/mL

**Q.** What about the MIC [4] of the same molecule?
**A.** 0.78 µg/mL

**Q.** With `CC(C)/N=c1\cc2n(-c3ccc(Cl)cc3)c3ccccc3nc-2cc1Nc1ccc(Cl)cc1` [CLOFAZIMINE] as the molecule, how does the MIC [14] read?
**A.** 0.12 µg/mL (≈ 0.253 µM)

**Q.** With `N[C@@H]1CONC1=O` [CYCLOSERINE] as the molecule, how does the MIC [1] read?
**A.** 3.12 µg/mL (≈ 30.6 µM)

**Q.** What about the MIC [6] of the same molecule?
**A.** 3.12 µg/mL (≈ 30.6 µM)

**Q.** And the MIC [5]?
**A.** 12.5 µg/mL (≈ 122 µM)

**Q.** And the MIC [8]?
**A.** 3.12 µg/mL (≈ 30.6 µM)

**Q.** And the MIC [3]?
**A.** 3.12 µg/mL (≈ 30.6 µM)

**Q.** How did the MIC [15] turn out when `COc1ccc2cc1Oc1ccc(cc1)C[C@H]1c3cc(c(OC)cc3CCN1C)Oc1c(OC)c(OC)cc3c1[C@H](C2)N(C)CC3` [FANCHININ] was run?
**A.** 0.25 µg/mL

**Q.** What about the MIC [16] of the same molecule?
**A.** 0.25 µg/mL

**Q.** `O=[N+]([O-])c1c(Cl)cccc1-c1c[nH]cc1Cl` [PYRROLNITRIN] was tested. Which IC [17] did it give?
**A.** 0.075 µg/mL

**Q.** And the MIC [1]?
**A.** 4 µg/mL (≈ 15.6 µM)

**Q.** And the MIC [6]?
**A.** 4 µg/mL (≈ 15.6 µM)

**Q.** What about the IC [18] of the same molecule?
**A.** 0.075 µg/mL

**Q.** What about the MIC [8] of the same molecule?
**A.** 4 µg/mL (≈ 15.6 µM)

**Q.** What about the IC [19] of the same molecule?
**A.** 0.075 µg/mL
